{"source": "paper PMC9299836", "about": "(eLife, 2022)", "key": {"[1]": {"target": "T1, mGluR2 (Mus musculus, UniProt Q14BI2)", "T1 sequence (Q14BI2 19-872)": "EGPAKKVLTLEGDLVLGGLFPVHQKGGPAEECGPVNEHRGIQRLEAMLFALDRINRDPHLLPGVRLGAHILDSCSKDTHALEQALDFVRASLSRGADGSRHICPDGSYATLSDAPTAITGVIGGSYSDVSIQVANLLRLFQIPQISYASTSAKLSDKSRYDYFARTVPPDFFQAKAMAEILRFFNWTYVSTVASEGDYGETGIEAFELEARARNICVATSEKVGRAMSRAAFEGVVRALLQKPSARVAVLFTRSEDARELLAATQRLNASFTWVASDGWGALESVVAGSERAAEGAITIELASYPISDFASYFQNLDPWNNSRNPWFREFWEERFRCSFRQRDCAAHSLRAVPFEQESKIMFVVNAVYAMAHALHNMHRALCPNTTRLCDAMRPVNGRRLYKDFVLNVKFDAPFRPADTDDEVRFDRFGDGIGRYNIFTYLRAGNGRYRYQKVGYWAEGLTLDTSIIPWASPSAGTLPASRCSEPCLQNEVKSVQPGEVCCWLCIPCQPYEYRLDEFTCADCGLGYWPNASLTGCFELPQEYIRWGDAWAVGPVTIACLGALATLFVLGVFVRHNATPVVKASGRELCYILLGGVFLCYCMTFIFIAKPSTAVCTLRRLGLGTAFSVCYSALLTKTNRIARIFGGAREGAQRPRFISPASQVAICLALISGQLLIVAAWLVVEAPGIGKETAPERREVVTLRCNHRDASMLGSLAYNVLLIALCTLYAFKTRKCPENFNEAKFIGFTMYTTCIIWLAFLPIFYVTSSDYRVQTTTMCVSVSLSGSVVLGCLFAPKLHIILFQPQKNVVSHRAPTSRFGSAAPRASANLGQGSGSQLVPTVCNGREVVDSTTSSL", "test": "Functional calcium imaging, SNAP-mGluR2 (no FLAG-tag) with chimeric G protein Gqo5 in HEK293T cells", "type": "cell-based", "set-up": "Full length mGluR2 construct with an amber codon (TAG) mutation of amino acid A548 (azi-CRD) or N-terminal SNAP-tag (SNAP-mGluR2); host or cells: HEK293T", "conditions": "modulator alone; precluded analysis of glutamate potency and efficacy"}, "[2]": {"target": "mGluR2 (Mus musculus, UniProt Q14BI2, INS715F)", "sequence (Q14BI2 with tags, fused parts or gaps INS715F)": "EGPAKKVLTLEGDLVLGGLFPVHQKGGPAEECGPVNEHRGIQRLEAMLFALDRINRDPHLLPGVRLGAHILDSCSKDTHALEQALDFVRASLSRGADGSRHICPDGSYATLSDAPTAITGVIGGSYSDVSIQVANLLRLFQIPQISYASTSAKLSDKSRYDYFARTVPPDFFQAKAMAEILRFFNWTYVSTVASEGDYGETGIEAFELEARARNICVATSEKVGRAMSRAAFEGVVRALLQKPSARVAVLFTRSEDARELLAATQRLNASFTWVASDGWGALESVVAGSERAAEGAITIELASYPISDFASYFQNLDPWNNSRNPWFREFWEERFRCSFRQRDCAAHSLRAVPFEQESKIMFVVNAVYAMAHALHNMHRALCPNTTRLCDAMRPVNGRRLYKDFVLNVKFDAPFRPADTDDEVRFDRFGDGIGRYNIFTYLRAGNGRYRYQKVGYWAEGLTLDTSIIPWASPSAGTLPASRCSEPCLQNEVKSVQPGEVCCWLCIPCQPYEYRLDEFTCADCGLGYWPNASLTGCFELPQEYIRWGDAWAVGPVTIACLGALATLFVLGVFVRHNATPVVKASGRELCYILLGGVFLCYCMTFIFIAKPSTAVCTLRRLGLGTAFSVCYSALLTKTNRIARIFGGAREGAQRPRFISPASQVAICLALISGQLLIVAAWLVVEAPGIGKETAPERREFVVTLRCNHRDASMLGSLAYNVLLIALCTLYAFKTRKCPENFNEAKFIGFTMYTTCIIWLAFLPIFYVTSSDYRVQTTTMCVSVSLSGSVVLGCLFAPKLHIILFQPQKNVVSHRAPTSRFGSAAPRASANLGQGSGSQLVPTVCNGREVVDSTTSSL", "test": "Live-cell FRET, azi-ECL2 (7TM domain, extracellular loop 2) sensor in HEK293T cells;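 for all read-outs here: Cy3/Cy5 click-labeled sensor, whole-membrane ROIs per cell, apparent FRET after bleed-through correction, ΔFRET as treatment minus pre-treatment signal, at room temperature, at least three biological replicates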", "conditions": "for Mean normalized azi-ECL2 FRET response: glutamate + 5μM modulator, maximal response normalized to 1mM glutamate"}, "[3]": {"target": "mGluR2 (Mus musculus, UniProt Q14BI2, A548F)", "sequence (Q14BI2 19-872 A548F)": "as the sequence (Q14BI2 19-872) above, with A530F counted along it", "test": "Live-cell FRET, azi-CRD (cysteine-rich domain) sensor in HEK293T cells", "conditions": "for Mean normalized FRET response, azi-CRD PAM DRC: glutamate + 5μM LY487379, maximal response normalized to 1mM glutamate"}, "[4]": {"target": "T1, mGluR2", "test": "Live-cell FRET, SNAP-m2 (VFT domain) inter-subunit sensor in HEK293T cells;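 for all read-outs here: apparent FRET efficiency from whole-membrane ROIs of single cells, corrected for donor bleed-through and background, ΔFRET as treatment minus pretreatment signal, recorded at room temperature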", "conditions": "for SNAP-m2 FRET response (PAM DRC) / SNAP-m2 FRET response (PAM DRC), Mean: Glutamate + 5μM LY487379; for SNAP-m2 FRET response (PAM DRC): individual cells, normalized to 1mM glutamate"}, "[5]": {"conditions": "5μM LY487379, ([1 mM glutamate + modulator] - [1 mM glutamate]) × 100"}}, "note": "Several values for one entry are separate records, joined by “and”; a condition that tells them apart may be missing. Identical values can stand only once.", "data": [{"smiles": "COc1ccccc1Oc1ccc(N(Cc2cccnc2)S(=O)(=O)CC(F)(F)F)cc1", "note": "[LY487379, N -(4-(2-Methoxyphenoxy)phenyl)-N -(2,2,2− trifluoroethylsulfonyl)pyrid-3-ylmethylamine]", "values": [{"measurement": "Effect of modulator itself on intracellular calcium flux", "setting": "[1]", "value": "Direct activation of mGluR2"}, {"measurement": "azi-ECL2 - ΔEfficacy, Mean ΔEfficacy", "setting": "[2]; [5]", "value": 24.615}, {"measurement": "Mean ΔPotency", "setting": "[2]; 5μM modulator, (([modulator + glutamate]EC50 – [glutamate] EC50)/[glutamate] EC50) × 100", "value": -30.8994}, {"measurement": "ΔPotency, individual cell responses", "setting": "[2]; 5μM modulator, single cells, (([modulator + glutamate]EC50 – [glutamate] EC50)/[glutamate] EC50) × 100", "value": "-50.558 and -25.4476 and -23.8904 and -47.6382 and -34.9857 and -54.4511 and -26.0316 and -30.3706 and -10.8251 and 8.313 and -4.368 and -31.1486 and -23.7197 and -38.0027 and -24.5685 and -37.4665 and -50.1273 and -31.7846 and -24.8874 and -46.4706"}, {"measurement": "ΔEfficacy, individual cell responses", "setting": "[2]; 5μM modulator, single cells, ([1 mM glutamate + modulator] - [1 mM glutamate]) × 100", "value": "52.1008 and 4.706 and 3.279 and -3.644 and 40.8403 and 19.2658 and 55.7571"}, {"measurement": "Mean max response (normalized max ΔFRET)", "setting": "[2]; azi-ECL2, 1 mM glutamate + 5 μM modulator, normalized to 1 mM glutamate", "value": 1.25}, {"measurement": "Hill slope of glutamate titration", "setting": "[2]; azi-ECL2 sensor, + 5 μM modulator", "value": 0.98}, {"measurement": "Live-cell FRET max response normalized to 1mM glutamate", "setting": "[2]; azi-ECL2 sensor, Glutamate + 5μM LY487379, individual values (N=7)", "value": "1.4084 and 1.193 and 1.558 and 1.521 and 1.047 and 1.033 and 0.9636"}, {"measurement": "Mean normalized azi-ECL2 FRET response", "setting": "[2]; log[Glutamate] (M) -3", "value": 1.246}, {"measurement": "Mean normalized azi-ECL2 FRET response", "setting": "[2]; log[Glutamate] (M) -4.1549", "value": 1.162}, {"measurement": "Mean normalized azi-ECL2 FRET response", "setting": "[2]; log[Glutamate] (M) -4.52288", "value": 1.05}, {"measurement": "Mean normalized azi-ECL2 FRET response", "setting": "[2]; log[Glutamate] (M) -5", "value": 0.9021}, {"measurement": "Mean normalized azi-ECL2 FRET response", "setting": "[2]; log[Glutamate] (M) -5.39794", "value": 0.6628}, {"measurement": "Mean normalized azi-ECL2 FRET response", "setting": "[2]; log[Glutamate] (M) -5.82391", "value": 0.3586}, {"measurement": "Mean normalized azi-ECL2 FRET response", "setting": "[2]; log[Glutamate] (M) -6.52288", "value": 0.0516}, {"measurement": "Mean normalized azi-ECL2 FRET response", "setting": "[2]; log[Glutamate] (M) -7", "value": 0.00565}, {"measurement": "Mean normalized azi-ECL2 FRET response", "setting": "[2]; log[Glutamate] (M) -7.30103", "value": 0}, {"measurement": "Mean normalized azi-ECL2 FRET response", "setting": "[2]; log[Glutamate] (M) -7.69897", "value": 0}, {"measurement": "azi-CRD - ΔEfficacy, Mean ΔEfficacy", "setting": "[3]; [5]", "value": 56.4462}, {"measurement": "azi-CRD - ΔEfficacy, individual cell responses", "setting": "[3]; 5μM LY487379, single cells", "value": "81.7927 and 91.1647 and 102.83 and 105.34 and 78.0041 and 66.6667 and 72.6804 and 69.5464 and 76.2911 and 41.9214 and 42.0188 and 53.8462 and 0 and 21.4575 and 34.4595 and 42.2449 and 30.2041 and 33.2258 and 28.7834"}, {"measurement": "Hill slope of glutamate titration", "setting": "[3]; azi-CRD sensor, + 5 μM modulator", "value": 0.91}, {"measurement": "Mean max response (normalized max ΔFRET)", "setting": "[3]; azi-CRD, 1 mM glutamate + 5 μM modulator, normalized to 1 mM glutamate", "value": 1.56}, {"measurement": "Mean ΔPotency", "setting": "[3]; azi-CRD, 5μM modulator, (([modulator + glutamate]EC50 – [glutamate] EC50)/[glutamate] EC50) × 100", "value": -61.3748}, {"measurement": "ΔPotency, individual cell", "setting": "[3]; azi-CRD, 5μM modulator, calculated from individual cell responses", "value": "-86.3622 and -82.4274 and -82.7128 and -78.2764 and -89.1123 and -88.282 and -87.867 and -88.628 and -87.1232 and -72.2401 and -70.8565 and -64.63 and -55.982 and -66.7055 and -27.5303 and -19.9202 and -46.4693 and -21.7362 and -27.2709 and -11.7911 and -36.6107 and -57.7116"}, {"measurement": "Mean normalized FRET response, azi-CRD PAM DRC", "setting": "[3]; log[Glutamate] (M) -3", "value": 1.564}, {"measurement": "Mean normalized FRET response, azi-CRD PAM DRC", "setting": "[3]; log[Glutamate] (M) -4.1549", "value": 1.506}, {"measurement": "Mean normalized FRET response, azi-CRD PAM DRC", "setting": "[3]; log[Glutamate] (M) -4.52288", "value": 1.431}, {"measurement": "Mean normalized FRET response, azi-CRD PAM DRC", "setting": "[3]; log[Glutamate] (M) -5", "value": 1.21}, {"measurement": "Mean normalized FRET response, azi-CRD PAM DRC", "setting": "[3]; log[Glutamate] (M) -5.39794", "value": 0.9243}, {"measurement": "Mean normalized FRET response, azi-CRD PAM DRC", "setting": "[3]; log[Glutamate] (M) -5.82391", "value": 0.548}, {"measurement": "Mean normalized FRET response, azi-CRD PAM DRC", "setting": "[3]; log[Glutamate] (M) -6.52288", "value": 0.2035}, {"measurement": "Mean normalized FRET response, azi-CRD PAM DRC", "setting": "[3]; log[Glutamate] (M) -7", "value": 0.1104}, {"measurement": "Mean normalized FRET response, azi-CRD PAM DRC", "setting": "[3]; log[Glutamate] (M) -7.30103", "value": 0.08348}, {"measurement": "Mean normalized FRET response, azi-CRD PAM DRC", "setting": "[3]; log[Glutamate] (M) -7.69897", "value": 0}, {"measurement": "SNAP-m2 - ΔEfficacy, Mean ΔEfficacy", "setting": "[4]; [5]", "value": 7.324}, {"measurement": "SNAP-m2 FRET response (PAM DRC)", "setting": "[4]; log[Glutamate] (M) -3", "value": -1.073}, {"measurement": "SNAP-m2 FRET response (PAM DRC), Mean", "setting": "[4]; log[Glutamate] (M) -3", "value": -1.073}, {"measurement": "SNAP-m2 FRET response (PAM DRC)", "setting": "[4]; log[Glutamate] (M) -4.1549", "value": "-1.073 and -1.043 and -1.045 and -1.173"}, {"measurement": "SNAP-m2 FRET response (PAM DRC), Mean", "setting": "[4]; log[Glutamate] (M) -4.1549", "value": -1.083}, {"measurement": "SNAP-m2 FRET response (PAM DRC)", "setting": "[4]; log[Glutamate] (M) -4.52288", "value": "-1.073 and -1.028 and -1.065 and -1.205"}, {"measurement": "SNAP-m2 FRET response (PAM DRC), Mean", "setting": "[4]; log[Glutamate] (M) -4.52288", "value": -1.093}, {"measurement": "SNAP-m2 FRET response (PAM DRC)", "setting": "[4]; log[Glutamate] (M) -5", "value": "-0.9102 and -0.7407 and -0.8397 and -1.14"}, {"measurement": "SNAP-m2 FRET response (PAM DRC), Mean", "setting": "[4]; log[Glutamate] (M) -5", "value": -0.9075}, {"measurement": "SNAP-m2 FRET response (PAM DRC)", "setting": "[4]; log[Glutamate] (M) -5.39794", "value": "-0.5434 and -0.4233 and -0.4506 and -0.9619"}, {"measurement": "SNAP-m2 FRET response (PAM DRC), Mean", "setting": "[4]; log[Glutamate] (M) -5.39794", "value": -0.5948}, {"measurement": "SNAP-m2 FRET response (PAM DRC)", "setting": "[4]; log[Glutamate] (M) -5.82391", "value": "-0.2581 and -0.136 and -0.1638 and -0.657"}, {"measurement": "SNAP-m2 FRET response (PAM DRC), Mean", "setting": "[4]; log[Glutamate] (M) -5.82391", "value": -0.3038}, {"measurement": "SNAP-m2 FRET response (PAM DRC)", "setting": "[4]; log[Glutamate] (M) -6.52288", "value": "-0.05434 and 0 and -0.02048 and -0.1132"}, {"measurement": "SNAP-m2 FRET response (PAM DRC), Mean", "setting": "[4]; log[Glutamate] (M) -6.52288", "value": -0.047}, {"measurement": "SNAP-m2 FRET response (PAM DRC)", "setting": "[4]; log[Glutamate] (M) -7", "value": 0}, {"measurement": "SNAP-m2 FRET response (PAM DRC), Mean", "setting": "[4]; log[Glutamate] (M) -7", "value": 0}, {"measurement": "SNAP-m2 FRET response (PAM DRC)", "setting": "[4]; log[Glutamate] (M) -7.30103", "value": 0}, {"measurement": "SNAP-m2 FRET response (PAM DRC), Mean", "setting": "[4]; log[Glutamate] (M) -7.30103", "value": 0}, {"measurement": "SNAP-m2 FRET response (PAM DRC)", "setting": "[4]; log[Glutamate] (M) -7.69897", "value": 0}, {"measurement": "SNAP-m2 FRET response (PAM DRC), Mean", "setting": "[4]; log[Glutamate] (M) -7.69897", "value": 0}, {"measurement": "Mean max response (normalized max ΔFRET)", "setting": "[4]; SNAP-m2, 1 mM glutamate + 5 μM modulator, normalized to 1 mM glutamate", "value": 1.07}, {"measurement": "Mean ΔPotency", "setting": "[4]; SNAP-m2, 5μM modulator, (([modulator + glutamate]EC50 – [glutamate] EC50)/[glutamate] EC50) × 100", "value": -67.8391}, {"measurement": "Mean ΔEfficacy", "setting": "[4]; SNAP-m2, 5μM modulator, ([1 mM glutamate + modulator] - [1 mM glutamate]) × 100", "value": 7.324}, {"measurement": "Hill slope of glutamate titration", "setting": "[4]; SNAP-m2 sensor, + 5 μM modulator", "value": "–1.43"}]}]}
